Data: US20240252651A1, “METHOD OF DELIVERING NUCLEIC ACIDS INTO CELLS” (GUANGZHOU LIDE BIOMEDICINE TECHNOLOGY CO., LTD., priority 2021, published 2024)
“Also recorded” adds a separate entry of the source.

Key:
Hela cells [1] = assay: Transfection of GFP-expressing plasmid DNA in Hela cells (flow cytometer); assay type: cell-based, human; settings: plasmid DNA 0.5 μg/well, material 0.25 to 8 μg/well (dosages per FIG. 4), 24 h
Experimental: In this experiment, with GFP-expressing plasmid DNA as a reporter gene, a gene transfection efficiency of a cationic lipid analog material in Hela cells was detected. A specific method was as follows:
Hela cells were inoculated in a 24-well plate and cultured in an incubator for 12 h; each of different cationic lipid analog materials (0.25 μg/well to 8 μg/well) was mixed with GFP-expressing plasmid DNA (0.5 μg/well) in 40 μL of a sodium acetate buffer (25 mM, pH 5.2), and resulting mixtures each were allowed to stand for 10 min and then diluted with 460 μL of an Opti-MEM medium to obtain plasmid DNA-loaded cationic lipid analog complex particle solutions; a medium for the Hela cells in the plate was removed, then the HeLa cells were washed once with PBS, and the complex particle solutions were added; and the cells were cultured for 24 h, and then a plasmid DNA transfection efficiency in cells was analyzed by a flow cytometer. A commercial gene transfection reagent Lipofectamine 2000 was adopted as a positive control.

Hela cells [2] = assay: Transfection of luciferase-expressing plasmid DNA in HeLa cells (luciferase expression); assay type: cell-based, human; settings: plasmid DNA 0.5 μg, 24 h, luciferase expression level, FIG. 5
Experimental: In this example, with luciferase-expressing plasmid DNA as a reporter gene, a gene transfection efficiency of a cationic lipid analog material in HeLa cells was detected. A specific operation method was as follows: Hela cells were inoculated in a 96-well plate and cultured in an incubator for 12 h; each of different cationic lipid analog materials was mixed with luciferase-expressing plasmid DNA (0.5 μg) in 40 μL of a sodium acetate buffer (25 mM, pH 5.2), and resulting mixtures each were allowed to stand for 10 min and then diluted with 460 μL of an Opti-MEM medium to obtain plasmid DNA-loaded cationic lipid analog complex particle solutions; a medium for the Hela cells in the plate was removed, then the Hela cells were washed once with PBS, and the complex particle solutions were added in a volume of 125 μL; the cells were cultured for 24 h, then a resulting culture supernatant was discarded, and the cells were fully lysed; and a substrate was added at 50 μl/well, and an expression level of luciferase was detected by a multi-mode microplate reader.

[3] = tested on: DC2.4, RAW 264.7, A549, BxPC3, and HeLa cells; assay: Transfection of GFP-expressing plasmid DNA in different types of cells (LSCM); assay type: cell-based, human, mouse; settings: material 0.5 to 3 μg/well, plasmid DNA 0.5 μg/well, 24 h, FIG. 6
Experimental: In this experiment, with I2R3C18-1A1 as a representative cationic lipid analog material and GFP-expressing plasmid DNA as a reporter gene, transfection effects of the cationic lipid analog material at different dosages (0.5 μg/well to 3 μg/well) for plasmid DNA (0.5 μg/well) in different types of cells were investigated. A commercial gene transfection reagent Lipofectamine 2000 was adopted as a positive control. In this experiment, a GFP-expressing plasmid DNA-loaded I2R3C18-1A1 particle complex solution was prepared with reference to the method in Example 8 and added to DC2.4, RAW 264.7, A549, BxPC3, and HeLa cells respectively, these cells were cultured for 24 h, and then a transfection efficiency of plasmid DNA in cells was observed by LSCM.

DC 2.4 cells = assay: Transfection of eGFP-mRNA in DC 2.4 cells (FCM and LSCM); assay type: cell-based, mouse; settings: mRNA 0.2 μg/well, material 0.25 to 2 μg/well (dosages per FIG. 7), 24 h, FIG. 7-9
Experimental: In this experiment, with eGFP-mRNA as model mRNA, an mRNA transfection efficiency of a cationic lipid analog material in DC 2.4 cells was detected. A specific operation method was as follows:
DC 2.4 cells were inoculated in a 48-well plate and cultured in an incubator for 12 h; each of different cationic lipid analog materials (0.25 μg/well to 2 μg/well) was mixed with cGFP-expressing mRNA (0.2 μg/well) in 20 μL of a sodium acetate buffer (25 mM, pH 5.2), and resulting mixtures each were allowed to stand for 10 min and then diluted with 230 μL of a Opti-MEM medium to obtain mRNA-loaded complex particle solutions; a medium for the […] were washed once with PBS, and the complex particle solutions were added; and the cells were cultured for 24 h, an mRNA transfection efficiency in cells was observed by FCM and LSCM. A commercial gene transfection reagent Lipofectamine 2000 was adopted as a positive control.

A549 cells (A549-Luc) = assay: siRNA transfection, luciferase gene silencing in A549-Luc cells; assay type: cell-based, human; settings: final siRNA 100 nM, material 0.5 to 3 μg/well, 48 h, FIG. 10
Experimental: In this experiment, with I2R2C18-1A1, I2R3C18-1A1, I2R2C18-2A1, and I2R3C18-2A1 as representative cationic lipid analog materials, siRNA transfection and delivery effects of the cationic lipid analog materials were detected in A549 cells (A549-Luc). A specific operation method was as follows:
Luciferase-expressing A549 cells (A549-Luc) were inoculated in a 96-well plate and cultured in an incubator for 12 h; each of different materials (0.5 μg/well to 3 μg/well) was mixed with siRNA in 40 μL of a sodium acetate buffer (25 mM, pH 5.2), and resulting mixtures each were allowed to stand for 10 min and then diluted with 460 μL of an Opti-MEM medium to obtain siRNA-loaded complex particle solutions (final siRNA concentration was 100 nM); a medium for the A549-Luc cells in the plate was removed, then the A549-Luc cells were washed once with PBS, and the complex particle solutions each were added in a volume of 125 μL; the cells were cultured for 48 h, then a resulting culture supernatant was discarded, and the cells were fully lysed; and a substrate was added at 50 μl/well, and an expression level of luciferase was detected by a multi-mode microplate reader.

CCCCCCCC/C=C\CCCCCCCC(=O)N(CCCN(CC)CC)C(C(=O)NCCOCCOCCNC(=O)C(C(C)C)N(CCCN(CC)CC)C(=O)CCCCCCC/C=C\CCCCCCCC)C(C)C (stereo not drawn) [I2R3C18-1A1]
transfection efficiency of GFP-expressing plasmid DNA, compared with commercial transfection reagent Lipofectamine 2000 (Hela cells [1]): reaches or is higher than; also recorded: equivalent to or higher than
transfection efficiency of luciferase-expressing plasmid DNA, compared with Lipofectamine 2000 (Hela cells [2]): equivalent to or higher than
transfection of GFP-expressing plasmid DNA in different types of cells [3]: can transfect GFP-expressing plasmid DNA into tumor cells and immune cells
mRNA transfection efficiency (eGFP-mRNA), compared with Lipofectamine 2000 (DC 2.4 cells): high transfection efficiency; also recorded: equivalent to or higher than
gene silencing efficiency as a function of material dosage (A549 cells (A549-Luc)): increases with the increase of a dosage
siRNA transfection, silencing of the luciferase reporter gene (A549 cells (A549-Luc)): efficient gene silencing; also recorded: can transfect siRNA into cells to specifically silence the expression of the luciferase reporter gene
